The values below come from ChEMBL document CHEMBL1131771, “Structure-activity relationship analysis of substituted 4-quinolinamines, antagonists of immunostimulatory CpG-oligodeoxynucleotides” (Bioorg Med Chem Lett, 1999).

In general, pKa refers to the pH at which an ionisable group is half protonated. A word on the EC50: it is the concentration needed to bring the measured effect to its halfway point.

One data set can be described thus: Acid dissociation constant was evaluated. The class given is ADME.
Conditions: not given
Compound `CN(C)CCNC(=O)c1cc(-c2ccc3ccccc3c2)nc2ccccc12` yielded a pKa of 2.9.

Consider `CN(C)CCN(C)c1cc(-c2ccc3ccccc3c2)nc2ccccc12`, for which the pKa was 6.2.

Compound `CN1CCN(Cc2cc(Nc3cc(-c4ccc5ccccc5c4)nc4ccccc34)cc(CN3CCN(C)CC3)c2O)CC1` had a pKa of 6.9.

`CN(C)CCOc1cc(-c2ccc3ccccc3c2)nc2ccccc12` returned a pKa of 6.1.

A short description of another data set: Concentration required for half-maximal inhibition of CpG-ODN effect on thymidine uptake by WEHI 231 murine B-cells in the presence of alpha-sIgM. The class given is functional, cell-based. The settings on record: Mus musculus, WEHI231.
Turning to `Oc1ccc(Nc2cc(-c3ccc4ccccc4c3)nc3ccccc23)cc1`, the EC50 was determined as 320 nM.

With `Oc1c(CN2CCCCC2)cc(Nc2cc(-c3ccc4ccccc4c3)nc3ccccc23)cc1CN1CCCCC1`, the EC50 was 1.5 nM.

Regarding `CCN(CC)CCCC(C)Nc1cc(-c2ccccc2)nc2cc(Cl)ccc12` (stereo not given), the EC50 came out at 51.3 nM.

Take `Cc1ccc(-c2cc(NCCCN(C)C)c3ccccc3n2)cc1`: the 50% effective concentration (EC50) was 11.5 nM.

On to `CC(C)(C)OC(=O)NCCNc1cc(-c2ccc3ccccc3c2)nc2ccccc12`, for which the EC50 was 570 nM.

Regarding `CN(C)CCCCCCNc1cc(-c2ccc3ccccc3c2)nc2ccccc12`, the concentration giving a half-maximal response (EC50) turned out to be 5.9 nM.

`CN(C)CCCNc1cc(-c2ccc3ccccc3c2)nc2ccccc12`: the EC50 was 11 nM.

Take `CN(C)CCNc1cc(-c2ccc(C(F)(F)F)cc2)nc2ccccc12`: the EC50 was 155 nM.

In the case of `OCCCCCCNc1cc(-c2ccc3ccccc3c2)nc2ccccc12`, the EC50 was 170 nM.

Consider `CCCCc1ccc(Nc2cc(-c3ccc4ccccc4c3)nc3ccccc23)cc1`, for which the concentration giving a half-maximal response (EC50) is greater than 10000 nM.

In the case of `Oc1c(CN2CCOCC2)cc(Nc2cc(-c3ccc4ccccc4c3)nc3ccccc23)cc1CN1CCOCC1`, the concentration for a half-maximal effect (EC50) came out at 10 nM.

As for `O=C(CCCO)NCCCN1CCN(CCCNc2cc(-c3ccc4ccccc4c3)nc3ccccc23)CC1`, the EC50 came out at 25.1 nM.

On to `OCCOCCNc1cc(-c2ccc3ccccc3c2)nc2ccccc12`, for which the EC50 was determined as 330 nM.

`CN(C)CCNc1cc(-c2ccc3ccc4ccccc4c3c2)nc2ccccc12`: the EC50 came to 11 nM.

For `CC(CCCC(C)(C)O)Nc1cc(-c2ccc3ccccc3c2)nc2ccccc12` (stereo not given), the half-maximal effective concentration (EC50) amounted to 1150 nM.

With `CN(C)CCNC(=O)c1cc(-c2ccc3ccccc3c2)nc2ccccc12`, the EC50 was greater than 10000 nM.

With `CN(C)CCSc1cc(-c2ccc3ccccc3c2)nc2ccccc12`, the EC50 stood at 2400 nM.

On to `CN(C)CCN(C)c1cc(-c2ccc3ccccc3c2)nc2ccccc12`, for which the EC50 is 416 nM.

Regarding `CN(C)CCCCNc1cc(-c2ccc3ccccc3c2)nc2ccccc12`, the half-maximal effective concentration (EC50) came out at 4 nM.

Consider `CC(Nc1cc(-c2ccc3ccccc3c2)nc2ccccc12)C(O)c1ccccc1` (stereo not given), for which the concentration giving a half-maximal response (EC50) turned out to be 1000 nM.

Consider `CN(C)CCNc1cc(/C=C/c2ccccc2)nc2ccccc12`, for which the EC50 was 6.5 nM.

Turning to `Cc1ccc(-c2cc(NCCN(C)C)c3ccccc3n2)cc1`, the concentration giving a half-maximal response (EC50) worked out at 12.3 nM.

With `CN(C)CCCCNc1ccnc2ccccc12`, the EC50 worked out at 316 nM.

For `CN(C)CCNc1cc(-c2ccc3ccccc3c2)nc2ccccc12`, the half-maximal effective concentration (EC50) stood at 9.1 nM.

On to `OCCc1ccc(Nc2cc(-c3ccc4ccccc4c3)nc3ccccc23)cc1`, for which the EC50 came to 510 nM.

As for `CN(C)CCNc1cc(-c2cccc3ccccc23)nc2ccccc12`, the EC50 came out at 39.8 nM.

For `CN1CCN(Cc2cc(Nc3cc(-c4ccc5ccccc5c4)nc4ccccc34)cc(CN3CCN(C)CC3)c2O)CC1`, the concentration giving a half-maximal response (EC50) was determined as 0.24 nM.

As to `CN(C)CCOc1cc(-c2ccc3ccccc3c2)nc2ccccc12`, the concentration for a half-maximal effect (EC50) came out at 478 nM.

In the case of `CCN(CC)CCCC(C)Nc1ccnc2cc(Cl)ccc12` (stereo not given) [CHLOROQUINE], the EC50 was 110 nM.

For the compound `CN(C)CCCNc1ccnc2ccccc12`, the EC50 was 4400 nM.

For the compound `Oc1c(CN2CCCC2)cc(Nc2cc(-c3ccc4ccccc4c3)nc3ccccc23)cc1CN1CCCC1`, the concentration for a half-maximal effect (EC50) came out at 1.2 nM.
